Columns and labels:
[1] = molecular target: T1, N-acylethanolamine acid amidase (NAAA) (Homo sapiens, UniProt Q02083); test: recombinant enzyme activity assay, heptaenyl ethanolamide substrate, pH […]; type: biochemical
T1 sequence (Q02083 29-125): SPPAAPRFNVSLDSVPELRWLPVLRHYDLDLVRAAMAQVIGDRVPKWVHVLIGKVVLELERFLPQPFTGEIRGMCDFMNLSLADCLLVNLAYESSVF
T1 sequence (Q02083 126-359): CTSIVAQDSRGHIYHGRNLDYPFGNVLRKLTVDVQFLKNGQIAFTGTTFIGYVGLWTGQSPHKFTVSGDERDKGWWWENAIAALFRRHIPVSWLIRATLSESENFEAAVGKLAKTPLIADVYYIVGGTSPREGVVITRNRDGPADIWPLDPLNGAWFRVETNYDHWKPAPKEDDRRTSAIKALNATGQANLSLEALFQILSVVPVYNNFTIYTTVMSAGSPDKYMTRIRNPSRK

[2] = molecular target: T2, fatty acid amide hydrolase (FAAH) (Homo sapiens, UniProt O00519); test: recombinant enzyme activity assay, anandamide substrate, pH […]; type: biochemical
T2 sequence (O00519 1-579): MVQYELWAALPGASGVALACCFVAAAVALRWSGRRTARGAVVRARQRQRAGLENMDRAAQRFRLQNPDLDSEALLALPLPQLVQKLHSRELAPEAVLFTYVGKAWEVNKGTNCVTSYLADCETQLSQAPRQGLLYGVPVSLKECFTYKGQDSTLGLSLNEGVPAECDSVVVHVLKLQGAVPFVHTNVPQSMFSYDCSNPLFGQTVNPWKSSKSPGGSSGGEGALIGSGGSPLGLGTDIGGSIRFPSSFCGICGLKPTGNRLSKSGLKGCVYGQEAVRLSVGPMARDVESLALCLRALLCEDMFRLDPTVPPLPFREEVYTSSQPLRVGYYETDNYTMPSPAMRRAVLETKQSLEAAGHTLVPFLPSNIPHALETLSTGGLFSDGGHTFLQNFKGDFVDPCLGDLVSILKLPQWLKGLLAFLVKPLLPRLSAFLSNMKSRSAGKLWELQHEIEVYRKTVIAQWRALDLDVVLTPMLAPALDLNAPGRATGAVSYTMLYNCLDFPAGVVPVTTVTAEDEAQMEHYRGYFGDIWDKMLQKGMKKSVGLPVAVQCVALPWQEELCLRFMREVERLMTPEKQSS

IC50 [2] [µM] | Compound | IC50 [1] [µM]
 | CC(=O)O[C@H]1CC(C)(C)C(=C=C/C(C)=C/C=C/C(C)=C/C=C/C=C(C)/C=C/C=C(\C)C(=O)C[C@@]23O[C@]2(C)C[C@@H](O)CC3(C)C)[C@](C)(O)C1 [FX, Fucoxanthin] | 31.4 ± 1.06
42.4 ± 1.11 | C\C(C=C=C1C(C)(C)C[C@H](O)C[C@@]1(C)O)=C/C=C/C(C)=C/C=C/C=C(C)/C=C/C=C(\C)C(=O)C[C@@]12O[C@]1(C)C[C@@H](O)CC2(C)C [FXOH, Fucoxanthinol] | 12.8 ± 1.12
